Earlier results as cited in patent US6284774A, “4-Benzyl piperidine alkylsulfoxide heterocycles and their use as subtype-selective NMDA receptor antagonists” (priority 2000, dated 2001).

Legend:
[1] = test system: smooth muscle of the airway; settings: cited from earlier work
[2] = variety of animal models highly predictive of human anxiety; cited from earlier work

SMILES	ability to relax the smooth muscle of the airway [1]	effectiveness in animal models of anxiety [2]
CNC1(c2ccccc2Cl)CCCCC1=O (centres unmarked) [ketamine]	relax the smooth muscle of the airway	
C[C@]12N[C@H](Cc3ccccc31)c1ccccc12 [MK801]		effective in a variety of animal models of anxiety
